Laboratory results reported in patent US12318452B2, “Degraders of WEE1 kinase” (DANA-FARBER CANCER INSTITUTE, INC., priority 2018, dated 2025).
“And” between values parts separate entries of the source, which are not always exact repeats. Identical values can stand only once. Blank lines part the entries; values can stand above or below the compound they belong to.

Assays:
pCDK1 Y15 = assay: Downstream signalling immunoblot in MOLT4 cells (pCDK1 Y15, cleaved PARP, γH2Ax); format: cell-based; conditions: 24-hr, MOLT4 cells
Description: (§1) Whole cell lysates for immunoblotting were prepared by pelleting cells from each cell line at 4° C. (300 g) for 5 minutes. The resulting cell pellets were washed 1× with ice-cold PBS and then resuspended in RIPA lysis buffer (Sigma, cat #R0278) supplemented with protease and phosphatase inhibitor tablets (Roche cat #4906845001). Lysates were clarified at 14,000 rpm for 15 minutes at 4° C. prior to quantification by BCA assay (Pierce™, cat #23225). Whole cell lysates were loaded into Bolt 4-12% Bis-Tris Gels (Thermo Fisher, cat #NW04120BOX) and separated by electrophoreses at 95 V for 1.5 hours. The gels were transferred to a nitrocellulose membrane using the iBlot® Gel Transfer at P3 for 7 minutes (Thermo Fisher, cat #IB23001) and then blocked for 1 hour at room temperature in Odyssey® blocking buffer (LICOR® Biosciences, cat #927-50010). Membranes were probed using antibodies against the relevant proteins at 4° C. overnight in 20% Odyssey® Blocking Buffer in 1×TBST. Membranes were then washed three times with 1×TBST (at least 5 minutes per wash) followed by incubation with the IRDye® goat anti-mouse (LICOR®, cat #926-32210) or goat anti-rabbit (LICOR®, cat #926-32211) secondary antibody (diluted 1:10,000) in 20% Odyssey® Blocking Buffer in 1×TBST for 1 hour at room temperature. After three washes with 1×TBST (at least 5 minutes per wash), the immunoblots were visualized using the ODYSSEY® Infrared Imaging System (LICOR®).
(§2) MOLT4 cells were plated at 1.5 million cells per well in a 6-well plate, with 3 mL of media per well. Cells were then immediately treated with the indicated concentration of the indicated compound and incubated for the indicated amount of time. Cells were collected by transferring each well to a 15 mL conical, centrifuging (1000 rpm for 3 min), then washing the cell pellet 2× with cold PBS. Each cell pellet was then lysed in 100 μL of RIPA lysis buffer (+protease/phosphatase inhibitors). Samples were normalized and prepped in 4×LDS+10% β-mercaptoethanol and boiled for 5 min at 95° C. Lysates were probed for specified proteins by western blotting using the Bolt® system (Life Technologies™)
The effects of targeted Wee1 degradation on the cell cycle were evaluated. Wee1 is required for the temporal regulation of CDK1 at the G2/M cell-cycle checkpoint, and Wee1 loss therefore […] via activation of CDK1. Following loss of Wee1 activity, cells are expected to enter mitosis before completing DNA repair, ultimately resulting in excessive unrepaired DNA damage, mitotic catastrophe, and apoptosis (Beck et al., Mol. Cell Biol. 32:4226-4236 (2012)).

MOLT4 cells = assay: Cell cycle analysis by propidium iodide staining; format: cell-based
Description: MOLT4 cells were plated at 1.5 million cells per well in a 6-well plate, with 3 mL of media per well. Immediately after plating, cells were treated with the indicated concentrations of the indicated compound. At the indicated time points, cells were collected by transferring each well to a 15 mL conical, centrifuging (1000 rpm for 3 min), and then washing the cell pellet 3× with cold PBS. Cell pellets were then fixed with 1 mL cold 80% ethanol in PBS at 4° C. overnight. The cell pellets were then washed by adding 1 mL of PBS and then centrifuging (1500 rpm for 5 minutes), followed by aspiration of the PBS/ethanol mix. Cells were resuspended in cell cycle staining solution (100 μg/mL of RNAse A (Roche, 10109169001) and 50 μg/mL propidium iodide (Life Technologies™, P1304MP), diluted in PBS, and incubated for 10 minutes at room temperature. Cell cycle data was acquired by flow cytometry on a Guava® easyCyte™ flow cytometer (Millipore™) using the InCyte™ software. Data was analyzed using FlowJo®. N=3 biological replicates were used for each treatment condition.

[1] = test system: MOLT4 cells (parental, wild type); assay: CellTiter-Glo cell viability, 72 hours; format: cell-based
Description: The indicated cell lines were plated in flat bottom 384-well plates (Corning® cat #3570). MOLT4 cells were plated at a density of 3,000 cells per well in 50 μL media, while OVCAR8, COV362, and Kuramochi cells were plated at a density of 750 cells per well in 50 μL media. Cells were treated the next day (except for MOLT4 cells, which were treated the same day as plating) with 0.1 μL of the indicated compounds in a four-fold dilution series using the Janus pinner. Cells were incubated with compounds for 72 hours at 37° C. 5% CO2. Anti-proliferative effects were then assessed by CellTiter-Glo® Luminescent Cell Viability Assay (Promega™ cat #G7570) according to the manufacturer's standards, measuring luminescence using an EnVision® plate-reader. IC50 values were determined using a non-linear regression curve fit in GraphPad Prism 8. N=4 biological replicates were used for each treatment condition.
MOLT4 cells were plated in a 384-well plate at 5,000 cells per well in 50 μL media (RPMI+10% FBS+1% Penn/Strep) and treated with 0.1 μL of the candidate compounds in four-fold dilution series using the Janus pinner. Cells were incubated with compounds for 72 hours at 37° C. 5% CO2. Anti-proliferative effects of these compounds were assessed 72 hours after compound addition using CellTiter-Glo® (Promega, cat #G7571). All proliferation assays were performed in biological quadruplicate. […] Effects upon cell viability for compound 13 in the MOLT4 WT cells are therefore likely driven in part by Wee1 inhibition, and in part by CRBN-mediated Wee1 degradation. […] Degradation of Wee1 with compound 21 was mediated by VHL.

PLK1 = PLK1 (Homo sapiens, UniProt P53350); assay: Z′-LYTE kinase activity assay for PLK1; format: biochemical; set-up: purchased Life Technologies (Invitrogen) commercial assay service; conditions: Km ATP, average of two replicates ± SD
Description: (§3) LanthaScreen™ assays were conducted for Wee1 in a 10-point dose response as performed in the commercial assay service by Life Technologies™. Z′-LYTE™ assays were conducted for PLK1 as performed in the commercial assay service by Life Technologies™ in a 10-point dose response using Km ATP concentrations.
The selectivity of Wee1 degradation was then assessed by performing multiplexed mass spectrometry (MS)-based proteomics in MOLT4 cells treated with 100 nM of compound 13 for 2 hours (Donovan et al., Elife 7:e38430 (2018)).

Wee1 [2] = target: T1, Wee1 (Homo sapiens, UniProt P30291); assay: LanthaScreen FRET-based biochemical binding assay for Wee1; conditions: LanthaScreen Binding activity assay; average of two replicates ± SD
Description: as §3

Wee1 [3] = target: T1, Wee1; assay: Cellular degradation of Wee1 by immunoblot, 6-hour treatment of MOLT4 cells; format: cell-based; set-up: endogenous in cells; host or cells: MOLT4 (wild type; CRBN-/- as control); conditions: MOLT-4, 1 μM, MOLT4 cells, approximated by immunoblot, read-out: Extent of Degradation of Wee1
Description: General Protocol: HT-29, MOLT4 wild type (WT) or CRBN^-/- cells were plated in a 6 well plate and treated for 6 hours with the indicated concentrations of the inventive compounds and control. HT-29 cells were cultured in McCoy's Media supplemented with 10% FBS and 1% Penicillin/Streptomycin. MOLT4 WT and CRBN^-/- cells were cultured in Roswell Park Memorial Institute (RPMI) medium supplemented with 10% FBS and 1% Penicillin/Streptomycin. Mycoplasma testing was performed every month and all lines were negative. Immunoblotting: Cells were washed with phosphate-buffered saline (PBS) and then lysed using radioimmunoprecipitation assay (RIPA) buffer supplemented with protease and phosphatase inhibitor cocktail (Roche) on ice for 15 minutes. The lysates were centrifuged at 14,000 rpm for 15 minutes at 4° C. and protein was quantified by bicinchoninic acid (BCA) assay (PierceTM). Primary antibodies used include: Wee1 ([…]) (Cell Signaling Technology®, 13084S), polo-like kinase 1 (PLK1) (Thermo Fisher Scientific, 37-7000), phosphor-cdc2 (Y15) (10A11) (Cell Signaling Technology®, […]), phospho-histone H3 ([…]) (Cell Signaling Technology®, […]), Ikaros ([…]) (Cell Signaling Technology®, 14859S), Aiolos ([…]) (Cell Signaling Technology®, 15103), casein kinase 1 alpha (Abcam®, 108296), β-actin (Cell Signaling Technology®, 8H10D10). FIG. 2A is an immunoblot showing that compound 13 degraded Wee1 after a 6-hour treatment in MOLT4 cells, and induced the downstream changes expected from Wee1 loss-including a decrease in phosphorylated cyclin-dependent kinase 1 (pCDK1) (Y15) and an increase in pH 3. […] Degradation of Wee1 by compound 13 was rescued in MOLT4 CRBN^-/- cells. MOLT4 WT and CRBN^-/- cells were plated in a 6-well plate at 2.25 million cells per well in 3 mL media (RPMI+10% FBS+1% Penn/Strep). After treatment with the indicated concentrations of candidate compounds, cells were incubated for 6 hours at 37° C. 5% CO2. To harvest, the cells were washed 1× with cold PBS, then collected by centrifugation. Cell pellets were lysed in RIPA buffer with protease and phosphatase inhibitors (Roche). Lysates were clarified by centrifugation, and protein concentrations were normalized using a BCA assay (Thermo ScientificTM). The samples were diluted with 4×LDS+10% β-mercaptoethanol, and were boiled at 95° C. for 5 minutes. Proteins of interest were then assessed by western blotting. […] The experimental protocol was the same as in Example 28.

Wee1 [4] = target: T1, Wee1; assay: Wee1 degradation immunoblot in MOLT4 cells, 5-hr dose response and time course; format: cell-based; set-up: endogenous in cells; host or cells: MOLT4 (wild type; CRBN-/- as control); conditions: MOLT4 cells
Description: as §1, §2
To confirm that compound 13-mediated Wee1 degradation is CRBN dependent (FIG. 1D), Wee1 degradation profiles in parental versus CRBN^−/− MOLT4 cells were compared. In parental MOLT4 cells, compound 13 induced potent Wee1 degradation after 5 hours, with maximal degradation observed at 100 nM and a “hook effect” apparent at the top concentration of 10 μM, where compound 13:CRBN and compound 13-Wee1 binary complexes inhibit the formation of a productive ternary complex (Toure and Crews, Angew. Chem. 55:1966-1973 (2016)).
To evaluate the kinetics of Wee1 degradation, a time course study was performed in MOLT4 cells using 100 nM compound 13. Degradation occurred rapidly, with over 50% degradation achieved within 30 min, and complete degradation reached by 3 hr (FIG. 4C).

T1 sequence (P30291 whole entry): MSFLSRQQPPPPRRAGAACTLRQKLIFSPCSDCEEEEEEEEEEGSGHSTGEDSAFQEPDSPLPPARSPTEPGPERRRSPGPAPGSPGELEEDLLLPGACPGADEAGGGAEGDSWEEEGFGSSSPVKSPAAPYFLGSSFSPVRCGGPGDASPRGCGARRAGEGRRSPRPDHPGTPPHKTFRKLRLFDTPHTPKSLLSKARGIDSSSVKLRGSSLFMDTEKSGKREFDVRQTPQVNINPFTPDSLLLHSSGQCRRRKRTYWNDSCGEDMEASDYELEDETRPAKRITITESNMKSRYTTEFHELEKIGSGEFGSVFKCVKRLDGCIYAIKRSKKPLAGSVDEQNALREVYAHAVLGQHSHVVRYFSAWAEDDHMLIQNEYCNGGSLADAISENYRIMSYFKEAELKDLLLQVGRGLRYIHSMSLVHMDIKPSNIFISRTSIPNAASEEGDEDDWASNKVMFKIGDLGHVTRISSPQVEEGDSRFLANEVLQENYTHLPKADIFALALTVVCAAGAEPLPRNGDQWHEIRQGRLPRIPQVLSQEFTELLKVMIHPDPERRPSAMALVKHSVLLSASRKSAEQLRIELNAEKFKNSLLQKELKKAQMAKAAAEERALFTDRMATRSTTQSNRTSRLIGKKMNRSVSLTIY
PLK1, sequence (P53350 whole entry): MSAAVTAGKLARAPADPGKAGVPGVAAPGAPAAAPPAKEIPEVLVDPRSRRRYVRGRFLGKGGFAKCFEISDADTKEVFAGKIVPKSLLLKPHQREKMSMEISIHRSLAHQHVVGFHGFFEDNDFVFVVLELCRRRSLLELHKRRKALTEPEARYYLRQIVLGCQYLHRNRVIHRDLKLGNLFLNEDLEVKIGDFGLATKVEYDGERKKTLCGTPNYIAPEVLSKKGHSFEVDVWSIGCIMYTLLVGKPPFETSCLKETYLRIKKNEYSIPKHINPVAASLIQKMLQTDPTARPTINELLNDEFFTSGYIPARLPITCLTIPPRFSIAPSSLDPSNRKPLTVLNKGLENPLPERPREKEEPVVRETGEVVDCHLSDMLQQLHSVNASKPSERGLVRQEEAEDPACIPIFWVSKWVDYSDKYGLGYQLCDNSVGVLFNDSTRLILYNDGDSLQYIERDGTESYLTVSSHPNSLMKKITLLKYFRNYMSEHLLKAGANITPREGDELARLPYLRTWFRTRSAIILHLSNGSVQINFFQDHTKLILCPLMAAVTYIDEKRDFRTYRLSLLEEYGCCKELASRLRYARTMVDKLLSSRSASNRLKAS

SMILES: C=CCn1c(=O)c2cnc(Nc3ccc(N4CCN(CCCNC(=O)CCOCCOCCNc5cccc6c5C(=O)N(C5CCC(=O)NC5=O)C6=O)CC4)cc3)nc2n1-c1cccc(C(C)(C)O)n1 (stereo not drawn) [Compound 7, N-(3-(4-(4-((2-allyl-1-(6-(2-hydroxypropan-2-yl)pyridin-2-yl)-3-oxo-2,3-dihydro-1H-pyrazolo[3,4-d]pyrimidin-6-yl)amino)phenyl)piperazin-1-yl)propyl)-3-(2-(2-((2-(2,6-dioxopiperidin-3-yl)-1,3-dioxoisoindolin-4-yl)amino)ethoxy)ethoxy)propanamide]
- IC50 (Wee1 [2]): 1 to 10 nM and 7.28 nM
- IC50 (PLK1): 118 ± 6 nM
- percent Wee1 degradation at 1 µM (Wee1 [3]): > 50%
- Concentration required to achieve maximal Wee1 degradation (Wee1 [4]; 5-hr treatment): 1 µM

SMILES: Nc1cccc2c1CN(C1CCC(=O)NC1=O)C2=O (stereo not drawn) [Lenalidomide, reference compound]
- Effect on the cell cycle (MOLT4 cells; 1 μM, 24 hours, MOLT4 cells): did not induce any significant changes
- Antiproliferative activity ([1]; 72-hr): no detectable antiproliferative activity

Further compounds by falling IC50 (PLK1), results first:

- IC50 (Wee1 [2]): 1 to 10 nM and 3.18 nM
- IC50 (PLK1): 285 ± 14 nM
- percent Wee1 degradation at 1 µM (Wee1 [3]): > 50%
- Concentration giving maximal (sufficient) Wee1 degradation (Wee1 [4]; 5-hr treatment): 100 nM
SMILES: C=CCn1c(=O)c2cnc(Nc3ccc(N4CCN(CCOCCOCCOCCNc5cccc6c5C(=O)N(C5CCC(=O)NC5=O)C6=O)CC4)cc3)nc2n1-c1cccc(C(C)(C)O)n1 (stereo not drawn) [Compound 12, 4-((2-(2-(2-(2-(4-(4-((2-allyl-1-(6-(2-hydroxypropan-2-yl)pyridin-2-yl)-3-oxo-2,3-dihydro-1H-pyrazolo[3,4-d]pyrimidin-6-yl)amino)phenyl)piperazin-1-yl)ethoxy)ethoxy)ethoxy)ethyl)amino)-2-(2,6-dioxopiperidin-3-yl)isoindoline-1,3-dione]

- IC50 (PLK1): 212 ± 12 nM
SMILES: C=CCn1c(=O)c2cnc(Nc3ccc(N4CCN(C)CC4)cc3)nc2n1-c1cccc(C(C)(C)O)n1 [AZD1775, 2-allyl-1-[6-(1-hydroxy-1-methylethyl)pyridin-2-yl]-6-{[4-(4-methylpipera-zin-1-yl)phenyl]amino}-1,2-dihydro-3H-pyrazolo[3,4-d]pyrimidin-3-one, reference compound]
- Downstream signalling changes (pCDK1 Y15, PARP cleavage, γH2Ax) (pCDK1 Y15; 100 nM): did not produce any noticeable changes
- Treatment necessary to induce the same downstream changes as 100 nM of compound 13 (pCDK1 Y15): 1 µM
- Effect on the cell cycle (MOLT4 cells; 100 nM, 24-hr, MOLT4 cells): did not appreciably affect the cell cycle
- Dose needed to elicit the same cell cycle changes as 100 nM of compound 13 (MOLT4 cells; 24-hr, MOLT4 cells): 1 µM
- Cell cycle effects in CRBN−/− cells (MOLT4 cells; CRBN−/− MOLT4 cells, 24 hours): unchanged
- IC50 ([1]; Homo sapiens, MOLT-4, 72 hours, read-out: Antiproliferative IC50): 800 nM

- IC50 (Wee1 [2]): 4.46 ± 0.95 nM
- IC50 (PLK1): 23.6 ± 4 nM
- percent Wee1 degradation at 1 µM (Wee1 [3]): 25 to 50%
- Wee1 degradation (Wee1 [4]; 5-hr exposure, 100 nM-10 μM): degraded Wee1
SMILES: C=CCn1c(=O)c2cnc(Nc3ccc(N4CCN(CCCCCCNc5cccc6c5C(=O)N(C5CCC(=O)NC5=O)C6=O)CC4)cc3)nc2n1-c1cccc(C(C)(C)O)n1 (stereo not drawn) [Compound 11, 4-((6-(4-(4-((2-allyl-1-(6-(2-hydroxypropan-2-yl)pyridin-2-yl)-3-oxo-2,3-dihydro-1H-pyrazolo[3,4-d]pyrimidin-6-yl)amino)phenyl)piperazin-1-yl)hexyl)amino)-2-(2,6-dioxopiperidin-3-yl)isoindoline-1,3-dione]
